Experimental data taken from ChEMBL document CHEMBL1121514, “6-(Phenylthio)-substituted 2,3,4,5-tetrahydro-1H-3-benzazepines, a novel class of dopamine receptor antagonists and neuroleptics” (J Med Chem, 1980).

Assays:
Adenylate cyclase [1] = assay: Inhibitory concentration against Dopamine sensitive adenylate cyclase in rats; type: functional
Adenylate cyclase [2] = assay: Inhibitory activity against Dopamine sensitive adenylate cyclase in rats
Rattus norvegicus [3] = assay: Effective Dose for avoidance acquisition in naive rats when administered intraperitoneal; type: functional; settings: ip
Rattus norvegicus [4] = assay: Effective Dose for catalepsy production in naive rats when administered intraperitoneal; type: functional; settings: ip
Canis lupus familiaris [5] = assay: % Change in renal vascular resistance in dogs when administered at dose 3 ug/kg intravenously
Canis lupus familiaris [6] = assay: % Change in renal vascular resistance in dogs when administered at dose 15 ug/kg intravenously

## CN1CCc2c(Cl)c(O)c(O)c(Sc3ccccc3)c2CC1
Adenylate cyclase [1]
  IC50: 360 nM
Adenylate cyclase [2]
  Ki: 33 nM
Rattus norvegicus [3]
  ED50: 0.08 mg/kg
Rattus norvegicus [4]
  ED50: 3 mg/kg

## Br.Oc1cc2c(c(Sc3ccccc3)c1O)CCNCC2
Adenylate cyclase [1]
  IC50: 2700 nM
Adenylate cyclase [2]
  Ki: 250 nM
Rattus norvegicus [3]
  ED50: 4.9 mg/kg
Rattus norvegicus [4]
  ED50: 64.6 mg/kg

## Br.CN1CCc2cc(O)c(O)c(Sc3ccccc3)c2CC1
Adenylate cyclase [1]
  IC50: 240 nM
Adenylate cyclase [2]
  Ki: 22 nM
Rattus norvegicus [3]
  ED50: 0.5 mg/kg
Rattus norvegicus [4]
  ED50: 5.6 mg/kg

## CN(C)CCCN1c2ccccc2Sc2ccc(Cl)cc21 [CHLORPROMAZINE]
Adenylate cyclase [1]
  IC50: 1300 nM
Adenylate cyclase [2]
  Ki: 118 nM
Rattus norvegicus [3]
  ED50: 1.5 mg/kg
Rattus norvegicus [4]
  ED50: 4.2 mg/kg

## NCCc1ccc(O)c(O)c1 [DOPAMINE]
Canis lupus familiaris [5]
  Change: 8%

## H-RPPGFSPFR-OH [BRADYKININ]
Canis lupus familiaris [5]
  Change: -19%
Canis lupus familiaris [6]
  Change: -37%
